Structures are written as SMILES.

Data set [1] in a line: Toxicity in mice, intraperitoneal administration. The settings on record: mouse, in vivo, ip, read-out: dose at which mice survive.
The subject of data set [2] is synthesis of cholesterol in a rat liver. Put plainly: Inhibitory activity against the biosynthesis of cholesterol in a rat liver. The data set is classed as biochemical. How it is done: 10. Inhibitory activity against the biosynthesis of cholesterol: a 50% inhibition of the synthesis of cholesterol in a rat liver is observed at a concentration of 0.04 μg/ml.
A short description of data set [3]: Solubility in organic solvents. The class given is physicochemical.

Take `CCC(C)C(=O)OC1CCC(O)C2=CC(O)C(C)C(CCC3CC(O)CC(=O)O3)C21` (centres unmarked) [3',5'-dihydroxy-(DH.ML-236B), 3',5'-Dihydroxy-(DH.ML-236B)]: the MTD in data set [1] was at most 1 mg/kg.

`CC1C=C2C=CC(C)C(CCC3CC(O)CC(=O)O3)C2C(O)C1` (centres unmarked) [MB-530A]: the “concentration at which a 50% inhibition of the synthesis of cholesterol is observed” value in data set [2] came out at 0.04 µg/mL. In addition, the Solubility entry was “soluble” in data set [3] (benzene); “insoluble” in data set [3] (hexane and petroleum ether); “readily soluble” in data set [3] (methanol, ethanol, acetone, ethyl acetate, chloroform and carbon tetrachloride).

Values taken from patent US4361515A, “Antihyperlipemic dihydro-ML-236B derivatives, their preparation and use” (Sankyo Company, Limited, priority 1980, dated 1982).
